# Reference: patent US4098823A, “Monospiroalkyl derivatives of prostaglandins” (Miles Laboratories, Inc., priority 1977, dated 1978)
# “Also recorded” adds a separate entry of the source.
# Assays:
# [1] = test system: Human Platelet Aggregation; conditions: in vitro; cited from earlier work
# [2] = test system: steroidogenesis in the adrenal glands; conditions: hypophysectomized rats; cited from earlier work
# [3] = test system: smooth muscle of the vas deferens; conditions: mammalian male reproductive system; cited from earlier work
# adrenergic nerve endings = conditions: guinea pig; cited from earlier work
# [4] = test system: female reproductive system; conditions: in vivo; cited from earlier work
# [5] = test system: motor pathways in the central nervous system; conditions: cited from earlier work
# [6] = test system: Blood Pressure and Heart Rate; experiment: Effects on Blood Pressure and Heart Rate in the Anesthetized Cat; assay type: in vivo; conditions: intravenous, 0.01 to 10.0 mcg/kg, scored only on hypotension;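 also: Anesthetized cats given intravenous doses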
# Experimental: The acute effects of test compounds on blood pressure and heart rate were determined in cats of either sex anesthetized with a mixture of pentobarbital sodium (35 mg/kg, i.v.) and barbital sodium (100 mg/kg, i.v.). Cannulas were placed in the trachea to allow adequate spontaneous ventilation, in a femoral artery for blood pressure recording with a strain gage transducer, and in a saphenous vein for drug administration. Heart rate was recorded by means of a cardiotachometer driven by the R wave of the electrocardiogram. After a period of 10 minutes of stable recordings of blood pressure and heart rate, the test compound was administered intravenously at doses increasing from 0.01 to 10.0 mcg/kg, spaced one log and injected at 10 minutes intervals. All doses were injected in a volume of 0.1 ml/kg. Modifications of blood pressure and heart rate induced by the test compound were expressed both in absolute units (mmHg and beats/minutes) and as percent of values recorded immediately before administration of each dose. Biphasic responses were tabulated in the order in which they occur. The direction of the observed changes was also noted (+ for increases and - for decreases).
# Activity of compounds in this test was judged only on the basis of the degree of hypotension observed. Thus, the ED50 mmHg (dose decreasing blood pressure by 50 mmHg) was calculated graphically and the compound scored according to the following scale: […]
# rat stomach fundus = experiment: Cascade Assay, stomach (smooth muscle stimulant effect); assay type: cell-based; conditions: superfused, 50% of maximum (PGE1)
# How it was run: (§1)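 Rabbit aortic strip (4 g tension), rat stomach fundus, rat colon and chick rectum (1 g) in cascade, superfused at 10 ml/min with 37° C Krebs containing cholinergic, adrenergic, serotonin and histamine blockers. Doses of 0.001–100,000 ng dripped on at 10–20 min intervals; maximal tension rise gave graphical ED50 per tissue.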
# chick rectum = experiment: Cascade Assay, rectum (smooth muscle stimulant effect); assay type: cell-based; conditions: superfused, 50% of maximum (PGE1)
# How it was run: as §1
# rabbit aortic strip = experiment: Cascade Assay, aorta (smooth muscle stimulant effect); assay type: cell-based; conditions: superfused, 50% of maximum (PGA2)
# How it was run: as §1
# Guinea Pig Trachea = experiment: Effects on the Guinea Pig Trachea in Vitro; assay type: cell-based; conditions: 0.01 to 10.0 mcg/ml, versus PGE1 0.1 mcg/ml, R = relaxation, C = contraction
# Experimental: A male guinea pig weighing 200-500 g was killed by a blow on the head. A 20 mm length of the trachea was dissected from the animal, transferred to a petri dish containing Krebs' solution (aerated with 95% O2 and 5% CO2 at 37° C), and cut longitudinally opposite the tracheal muscle. The tissue was then cut transversely three quarters of the distance across, a second cut in the opposite direction (again three quarters of the distance across the tissue) was made and the procedure was continued for the whole tissue. The ends of the trachea were pulled to form a zig-zag shaped strip. The tracheal strip used in the experiment was approximately 30 mm when extended under 0.25-0.5 g load in the tissue bath. Cotton thread was tied to one end of the tissue, and linen thread to the other. It was attached via the linen thread to a glass hook in a 5 ml isolated tissue bath containing Krebs' solution (37° C, aerated with a mixture of 95 % O2 and 5% CO2). […]
# A test compound was then added to the same two strips at bath concentrations of 0.01, 0.1, 1.0, and 10.0 mcg/ml and the effects of the compound were recorded. […] The mean of the effects of the test compound on the two strips was then calculated for each concentration, and, based on the resulting values, an activity value was assigned as follows: […]
# Gastric Secretion = experiment: Effects on Gastric Secretion in the Rat; assay type: in vivo; conditions: pylorus-ligated rat, subcutaneous, 2 x 1.5 mg/kg (total 3.0 mg/kg), 4 hours
# How it was run: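 Rats (150-200 g, groups of six) fasted 48 h, pylorus ligated under ether. Compounds given s.c. in phosphate buffer pH 7.38 at 1.5 mg/kg immediately post-surgery and 2 h later (total 3.0 mg/kg). At 4 h, gastric volume and total acid (titration with 0.1 N NaOH, mEq) compared with vehicle controls by t-test.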
# rat colon = experiment: Cascade Assay, colon (smooth muscle stimulant effect); assay type: cell-based; conditions: superfused, 50% of maximum (PGF2α)
# How it was run: as §1
# Rat Uterus = experiment: Effects on the Rat Uterus in Vitro; assay type: cell-based; conditions: Rattus norvegicus; in vitro, 29° C; response 50% that of carbachol; read-out: Test F Rat Uterus, Activity Value (ED50)
# How it was run: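 Uterine segments came from rats (140–160 g) given 1 mg/kg diethylstilbestrol s.c. 18 h earlier. Tissue was held isometrically at 1 g tension in de Jalon solution at 29 °C, gassed with 95% O2/5% CO2. Compound was tested at 0.001–10 mcg/ml in log steps, every 10 min with washes, and ED50 was derived graphically as 50% of the second carbachol (1 mcg/ml) response.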
# [7] = test system: Human Platelet Aggregation; experiment: Inhibition of Human Platelet Aggregation; assay type: cell-based; conditions: in vitro
# Experimental: The ability of test compounds to inhibit platelet aggregation was determined by a modification of the turbidometric technique of Born (Nature, 194:927 [1962]). Blood was collected from human volunteers who had not ingested aspirin or aspirin-containing products within the preceding two weeks in heparinized containers and was allowed to settle for one (1) hour. The platelet rich plasma (prp) supernates were collected and cooled. Siliconized glassware was used throughout.
# In a representative assay 1.9 ml of PRP and 0.2 ml of test compound at the appropriate concentrations (0.001 to 100 mcgm), or 0.2 ml of distilled water (control procedure) were placed in sample cuvettes. The cuvettes were placed in a 37° C incubation block for 15 minutes, and then in a spectrophotometer linked to a strip chart recorder. After 30-60 seconds, 0.2 ml of a solution, prepared by diluting a calf-skin collagen solution 1:9 with Tyrodes' Solution, was added to each cuvette. Platelet aggregation was evidenced by a decrease in optical density.
# An ED50 value was then determined graphically.
Compound,steroidogenesis in the adrenal glands [2],transmitter release from adrenergic nerve endings (adrenergic nerve endings),"effect in the female reproductive system (fertility, labor, abortion) [4]","Test E Cascade Assay, Stomach, Activity Value (ED50) (rat stomach fundus)","Test E Cascade Assay, Rectum, Activity Value (ED50) (chick rectum)","Test E Cascade Assay, Aorta, Activity Value (ED50) (rabbit aortic strip)","Test G Guinea Pig Trachea, Activity Value (Guinea Pig Trachea)","Test B Activity Value (% decrease in acidity, inhibition of gastric secretion) (Gastric Secretion)","Test E Cascade Assay, Colon, Activity Value (ED50) (rat colon)",EC50 (Rat Uterus) [µg/mL],further results
"CCCCC[C@H](O)/C=C/[C@H]1[C@H](O)CC(=O)[C@@H]1CCCCCCC(=O)O [PGE1, prostaglandin E1]",stimulate steroidogenesis in the adrenal glands,inhibit transmitter release from adrenergic nerve endings,–,–,–,–,–,–,–,–,"inhibition of aggregation of human platelets, in words (natural prostaglandin) [1]: displays a similar activity; contraction of smooth muscle of the vas deferens [3]: contracts the smooth muscle of the vas deferens"
CCCCC[C@H](O)/C=C/[C@H]1[C@H](O)CC(=O)[C@@H]1C/C=C\CCCC(=O)O [PGE2],stimulate steroidogenesis in the adrenal glands,inhibit transmitter release from adrenergic nerve endings,potent oxytocic effects in inducing labor,–,–,–,–,–,–,–,–
CCCCC[C@H](O)/C=C/[C@@H]1[C@@H](C/C=C\CCCC(=O)O)[C@@H](O)C[C@H]1O [PGF2α],–,–,contragestational effects; also recorded: induces spontaneous abortions in early pregnancy,–,–,–,–,–,–,–,transmission in motor pathways [5]: facilitates transmission in motor pathways
"COC(=O)CCCCCC[C@H]1C(=O)C=C[C@H]1/C=C/[C@@H](O)C1CC2(CCC2)C1 [TR-4126, Methyl 7-{5-oxo-2R-[3S-hydroxy-3-(spiro[3.3]hept-2-yl)-1E-propenyl]cyclopent-3-en-1R-yl}heptanoate]",–,–,–,0 (>10000),0 (>10000),0 (>10000),Cl,–,–,–,"Test D Activity Value (ED50 mmHg, decrease in blood pressure) [6]: 0 (>10.0)"
"O=C1C[C@@H](O)[C@H](/C=C/[C@@H](O)C2CC3(CCC3)C2)[C@H]1CCCCCCCO [TR-4714, 7-{3R-hydroxy-5-oxo-2R-[3S-hydroxy-3-(spiro[3.3]hept-2-yl)-1E-propenyl]cyclopent-1R-yl}heptan-1-ol]",–,–,–,0 (>10000),0 (>10000),0 (>10000),Cl,0 (<26),0 (>10000),> 10,–
"COC(=O)CCCCCC[C@H]1C(=O)C[C@@H](O)[C@@H]1/C=C/[C@@H](O)C1(C)CC2(CCC2)C1 [TR-4845, Methyl 7-{3R-hydroxy-5-oxo-2R-[3R-hydroxy-3-(2-methylspiro[3.3]hept-2-yl)-1E-propenyl]cyclopent-1R-yl}heptanoate]",–,–,–,0 (>10000),0 (>10000),0 (>10000),–,3 (51-75),0 (>10000),> 10,"inhibition of aggregation of human platelets, in words [7]: inhibit aggregation of platelets"
